This data set relates to T1, angiotensin-converting enzyme (ACE).
T1 construct: purified angiotensin-converting enzyme (ACE) from rabbit lungs; purchased Sigma, St-Louis, Mo; host or cells: purified from rabbit lungs
The data set can be described thus: Metabolic degradation by purified angiotensin-converting enzyme, HPLC analysis. Format: in vitro ADME, rabbit. The settings on record: rabbit, isolated enzyme ace, pH 7.5. The method, then:
The metabolic stability of various kinin-related peptides was evaluated by incubating the peptide in the presence of purified angiotensin-converting enzyme (ACE) from rabbit lungs (purchased from Sigma, St-Louis, Mo.) dissolved in phosphate buffered saline (PBS) (50 mmol/L, pH 7.5 containing 300 mmoL/L NaCl); the final concentration of enzyme was 45 μg/mL. The experimental protocol for the measurement of ACE activity has been described elsewhere^15,16. Briefly, 200 μmol/L of peptides (40 μL) were placed in a PBS buffer and incubated for 5 min at 37EC before adding 8.5 μL of ACE (total volume of the reaction medium; 190 μL). Samples were withdrawn at 30 min intervals, immersed in boiling water for 5 min, then cooled on ice and centrifuged (5 min) before proceeding to analysis of peptides by high pressure liquid chromatography (HPLC). Results of ACE metabolism are expressed in percent of kinin degradation following the incubation (30 min) of kinin substrates with the enzyme.
Pure peptides and metabolic products were analysed by reverse-phas HPLC on a C18 μBondapak column (4.6 mm×25 cm) (Waters) of 10-μm particle size. The peptides and their fragments were eluted at the rate of 2.0 mL/min. with a linear gradient ranging from 5 to 65% of acetonitrile/TFA 0.05%/water over 20 min. at room temperature. The elution positions of these peptides were determined by following the absorbance at 214 nm. For each assay, 50 μL of the reaction medium (treated or not with ACE) were extracted and injected into the column. Concentrations of the peaks products, different from the peaks of the peptide substrate, were estimated using a computer software program (Baseline 810; Waters) that controlled also all the chromatography operations. Isolated metabolites and substrates were collected and identified by Electrospray mass spectrometry (positive mode).

Where two headings read alike, the source gives them in different places. Non-standard residues stand in square brackets, D forms with d. Residues, ends and D or L forms follow the SMILES beside them. Oic = O=C(O)[C@@H]1C[C@@H]2CCCC[C@@H]2N1; 2Nal = N[C@@H](Cc1ccc2ccccc2c1)C(=O)O; Hyp = O=C(O)[C@@H]1C[C@@H](O)CN1; Tic = O=C(O)[C@@H]1Cc2ccccc2CN1; dTic = O=C(O)[C@H]1Cc2ccccc2CN1; 2Thi = N[C@@H](Cc1cccs1)C(=O)O

Regarding `CC[C@H](C)[C@H](NC(=O)[C@@H]1Cc2ccccc2CN1C(=O)[C@H](CO)NC(=O)[C@H](Cc1ccccc1)NC(=O)CNC(=O)[C@@H]1CCCN1C(=O)[C@@H]1CCCN1C(=O)[C@H](CCCNC(=N)N)NC(=O)[C@H](N)CCCNC(=N)N)C(=O)O` [Compound 14, D-Arg(L-Tic^7, Ile^8)desArg^9BK] (H-[dR]RPPGFS[Tic]I-OH; N-terminus and C-terminus assumed), the metabolised at 0.5 h stood at 77 ± 3%. `CC[C@H](C)[C@H](NC(=O)[C@H](Cc1ccc2ccccc2c1)NC(=O)[C@H](CO)NC(=O)[C@H](Cc1ccccc1)NC(=O)CNC(=O)[C@@H]1CCCN1C(=O)[C@@H]1CCCN1C(=O)[C@H](CCCNC(=N)N)NC(=O)[C@H](CCCCN)NC(C)=O)C(=O)O` [Compound 20, AcLys(L-βNal^7, Ile^8)desArg^9BK] (Ac-KRPPGFS[2Nal]I-OH; C-terminus assumed) gave a metabolised at 0.5 h, 42.1 μmol/L of 99 ± 1%. `N=C(N)NCCC[C@@H](N)C(=O)N[C@@H](CCCNC(=N)N)C(=O)N1CCC[C@H]1C(=O)N1C[C@H](O)C[C@H]1C(=O)NCC(=O)N[C@@H](Cc1cccs1)C(=O)N[C@@H](CO)C(=O)N1Cc2ccccc2C[C@@H]1C(=O)N1[C@H](C(=O)O)C[C@@H]2CCCC[C@@H]21` [Compound 31, D-Arg(Hyp^3, Thi^5, D-Tic^7, Oic^8)desArg^9BK, reference compound] (H-[dR]RP[Hyp]G[2Thi]S[dTic][Oic]-OH; N-terminus and C-terminus assumed): where the note is “30 min incubation of peptide (200 μmol/L) with ACE, 37 C, read-out: ACE (% degradation)”, the metabolised at 0.5 h amounted to 0%.

The record behind these values is US7041785B1, “B1-bradykinin receptor antagonists and use thereof” (Université de Sherbrooke, priority 1996, dated 2006).
